Structures are written as SMILES. Values joined by “and” are separate entries in the source; they are usually repeats but may differ in a detail not shown here. Identical values can stand only once. Inconclusive results and toxic doses are left out.

The text below walks through data of PubChem BioAssay AID248 (DTP/NCI, 2004).

This experiment relates to L1210 leukemia ip in BDF1 mice, survival T/C. Kind of experiment: NCI In Vivo Anticancer Drug Screen. Data for tumor model L1210 Leukemia (intraperitoneal) in B6D2F1 (BDF1) mice. Conditions: endpoint: mean survival time, higher = longer survival. In outline:
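Antitumor effect is assessed in tumor-bearing animals. Survival in the compound arm is compared with a vehicle-dosed control arm and expressed as their quotient.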

Where [1] appears, read: dose: 100.0 mg/kg/injection, schedule: Q01DX009 (ip), vehicle: Klucel (hydroxypropylcellulose) (HPC).
Setting [2] is: dose: 200.0 mg/kg/injection, schedule: Q01DX009 (ip), vehicle: Klucel (hydroxypropylcellulose) (HPC).
The mark [3] stands for this setting: dose: 400.0 mg/kg/injection, schedule: Q01DX009 (ip), vehicle: Klucel (hydroxypropylcellulose) (HPC).
The mark [4] stands for this setting: dose: 100.0 mg/kg/injection, schedule: Q01DX001 (ip), vehicle: saline.
[5] abbreviates: dose: 100.0 mg/kg/injection, schedule: Q04DX003 (ip), vehicle: saline.
Where [6] appears, read: dose: 200.0 mg/kg/injection, schedule: Q01DX001 (ip), vehicle: saline.
Where [7] appears, read: dose: 200.0 mg/kg/injection, schedule: Q04DX003 (ip), vehicle: saline.
[8] abbreviates: dose: 400.0 mg/kg/injection, schedule: Q01DX001 (ip), vehicle: saline.
Where [9] appears, read: dose: 100.0 mg/kg/injection, schedule: Q04DX003 (ip), vehicle: Klucel (hydroxypropylcellulose) (HPC).
Where [10] appears, read: dose: 200.0 mg/kg/injection, schedule: Q04DX003 (ip), vehicle: Klucel (hydroxypropylcellulose) (HPC).
The mark [11] stands for this setting: dose: 100.0 mg/kg/injection, schedule: Q04DX002 (ip), vehicle: saline with Tween-80.
Where [12] appears, read: dose: 200.0 mg/kg/injection, schedule: Q04DX002 (ip), vehicle: saline with Tween-80.
Where [13] appears, read: dose: 400.0 mg/kg/injection, schedule: Q04DX002 (ip), vehicle: saline with Tween-80.
[14] abbreviates: dose: 75.0 mg/kg/injection, schedule: Q01DX001 (ip), vehicle: carboxymethylcellulose (CMC).

Turning to `[Cu+2].[NH-]C(CCC(N)=O)C(=O)O.[NH-]C(CCC(N)=O)C(=O)O` (configuration not stated), the T/C is, setting by setting: (dose: 6.25 mg/kg/injection, schedule: Q04DX003 (ip), vehicle: saline) 96 % of control; (dose: 12.5 mg/kg/injection, schedule: Q04DX003 (ip), vehicle: saline) 91 % of control; (dose: 25.0 mg/kg/injection, schedule: Q04DX003 (ip), vehicle: saline) 100 % of control.

Turning to `O=c1oc(-c2ccccc2NS(=O)(=O)c2ccccc2)nc2cc(Cl)ccc12`, the T/C was 103 % of control under setting [1], 104 % of control under setting [2] and 110 % of control under setting [3].

With `COc1ccc(/C=C2\N=C(c3ccccc3)OC2=O)cc1OC`, the T/C reads like this: (dose: 50.0 mg/kg/injection, schedule: Q01DX001 (ip), vehicle: saline) 105 % of control; under setting [4], 109 % of control; under setting [5], 96 % of control; under setting [6], 105 % of control; under setting [7], 100 % of control; under setting [8], 100 % of control. Moreover, under “dose: 400.0 mg/kg/injection, schedule: Q04DX003 (ip), vehicle: saline”, the T/C is 96 % of control.

On to `CC(C)CC([NH-])C(=O)O.CC(C)CC([NH-])C(=O)O.CC(C)CC([NH-])C(=O)O.[Co+3]` (configuration not stated), for which the T/C reads like this: (dose: 12.5 mg/kg/injection, schedule: Q01DX009 (ip), vehicle: water) 106 % of control; (dose: 25.0 mg/kg/injection, schedule: Q01DX009 (ip), vehicle: water) 95 % of control; (dose: 50.0 mg/kg/injection, schedule: Q01DX009 (ip), vehicle: water) 98 % of control and 104 % of control; (dose: 100.0 mg/kg/injection, schedule: Q01DX009 (ip), vehicle: water) 117 % of control; (dose: 100.0 mg/kg/injection, schedule: Q04DX003 (ip), vehicle: water) 107 % of control and 98 % of control; (dose: 200.0 mg/kg/injection, schedule: Q01DX009 (ip), vehicle: water) 111 % of control. Moreover, the T/C runs as follows: (dose: 200.0 mg/kg/injection, schedule: Q04DX003 (ip), vehicle: water) 110 % of control and 112 % of control; (dose: 400.0 mg/kg/injection, schedule: Q04DX003 (ip), vehicle: water) 102 % of control.

Turning to `O=S(=O)(NO)c1ccc(Cl)cc1`, the T/C was 98 % of control (dose: 50.0 mg/kg/injection, schedule: Q01DX009 (ip), vehicle: saline sonified); 91 % of control (dose: 100.0 mg/kg/injection, schedule: Q01DX009 (ip), vehicle: saline sonified); 98 % of control under setting [5]; 95 % of control (dose: 200.0 mg/kg/injection, schedule: Q01DX009 (ip), vehicle: saline sonified); 94 % of control under setting [7].

For the compound `C/C(CCC(=O)O)=N\NC(=O)COc1ccc(Cl)cc1Cl`, the T/C under setting [9] was 94 % of control and the T/C under setting [10] was 98 % of control.

Regarding `COC1c2cnc(C)n2C=CN1C(C)=O` (configuration not stated), the T/C (dose: 25.0 mg/kg/injection, schedule: Q01DX009 (ip), vehicle: saline) was 102 % of control; the T/C (dose: 50.0 mg/kg/injection, schedule: Q01DX009 (ip), vehicle: saline) is 100 % of control; the T/C (dose: 100.0 mg/kg/injection, schedule: Q01DX009 (ip), vehicle: saline) is 91 % of control; the T/C under setting [5] was 108 % of control; the T/C under setting [7] was 98 % of control.

Turning to `COc1cc(C(O)C(=O)O)c([N+](=O)[O-])cc1OC` (configuration not stated), the T/C was 96 % of control under setting [4], 91 % of control under setting [6] and 91 % of control under setting [8].

Consider `CC(C)(C)c1cc(C#N)cc(Br)c1OP(=O)(Oc1c(Br)cc(C#N)cc1C(C)(C)C)c1ccccc1`, for which the T/C is 95 % of control under setting [11], 92 % of control under setting [12] and 97 % of control under setting [13].

Consider `CC(C)c1cccc(C(C)C)c1OC(=O)Nc1ccccc1Cl`, for which the T/C runs as follows: under setting [1], 105 % of control; under setting [9], 100 % of control; under setting [2], 89 % of control; under setting [10], 102 % of control; under setting [3], 89 % of control; (dose: 400.0 mg/kg/injection, schedule: Q04DX003 (ip), vehicle: Klucel (hydroxypropylcellulose) (HPC)) 103 % of control.

With `O=C(Nc1ccc(Cl)c([N+](=O)[O-])c1)OCCOc1ccccc1`, the T/C is 101 % of control (dose: 100.0 mg/kg/injection, schedule: Q01DX009 (ip), vehicle: saline with Tween-80); 110 % of control (dose: 100.0 mg/kg/injection, schedule: Q04DX003 (ip), vehicle: saline with Tween-80); 110 % of control (dose: 200.0 mg/kg/injection, schedule: Q01DX009 (ip), vehicle: saline with Tween-80); 105 % of control (dose: 200.0 mg/kg/injection, schedule: Q04DX003 (ip), vehicle: saline with Tween-80); 106 % of control (dose: 400.0 mg/kg/injection, schedule: Q01DX009 (ip), vehicle: saline with Tween-80); 100 % of control (dose: 400.0 mg/kg/injection, schedule: Q04DX003 (ip), vehicle: saline with Tween-80).

As to `O=C(O)c1ccc2c(c1)Cc1ccccc1-2`, the T/C reads like this: under setting [14], 96 % of control; (dose: 150.0 mg/kg/injection, schedule: Q01DX001 (ip), vehicle: carboxymethylcellulose (CMC)) 95 % of control; (dose: 300.0 mg/kg/injection, schedule: Q01DX001 (ip), vehicle: carboxymethylcellulose (CMC)) 102 % of control.

On to `COC(=O)c1ccccc1NC1=NCCO1`, for which the T/C is 98 % of control (dose: 50.0 mg/kg/injection, schedule: Q04DX002 (ip), vehicle: saline with Tween-80); 104 % of control under setting [11]; 91 % of control under setting [12]; 88 % of control under setting [13].

For `O=NN(CCF)C(=O)NC1CS(=O)(=O)CS(=O)(=O)C1`, the T/C is 164 % of control (dose: 6.25 mg/kg/injection, schedule: Q01DX001 (ip), vehicle: other); 204 % of control (dose: 12.5 mg/kg/injection, schedule: Q01DX001 (ip), vehicle: other); 255 % of control (dose: 25.0 mg/kg/injection, schedule: Q01DX001 (ip), vehicle: other); 262 % of control (dose: 50.0 mg/kg/injection, schedule: Q01DX001 (ip), vehicle: other); 296 % of control (dose: 75.0 mg/kg/injection, schedule: Q01DX001 (ip), vehicle: other); 205 % of control (dose: 100.0 mg/kg/injection, schedule: Q01DX001 (ip), vehicle: other).

`COc1cc(N)c2ncccc2c1`: the T/C reads like this: (dose: 15.0 mg/kg/injection, schedule: Q01DX001 (ip), vehicle: saline) 98 % of control; (dose: 30.0 mg/kg/injection, schedule: Q01DX001 (ip), vehicle: saline) 97 % of control; under setting [14], 96 % of control.
